# Assay results published in PMC7070167, “Cell‐permeable high‐affinity tracers for Gq proteins provide structural insights, reveal distinct binding kinetics and identify small molecule inhibitors” (British Journal of Pharmacology, 2020).
# Key:
# [1] = molecular target: T1, Gq proteins (Homo sapiens, UniProt P50148); test: Competition binding at human platelet membrane preparations; conditions: for inhibition or modulation of [^3H]PSB‐15900 binding by G protein inhibitors: concentrations up to 100 μM, preincubation for 3 hr
# T1 construct: Native cell membrane preparations from rat brain cortex and human blood platelets; host or cells: human platelets (intact suspension or membrane preparation)
# T1 sequence (P50148 1-359): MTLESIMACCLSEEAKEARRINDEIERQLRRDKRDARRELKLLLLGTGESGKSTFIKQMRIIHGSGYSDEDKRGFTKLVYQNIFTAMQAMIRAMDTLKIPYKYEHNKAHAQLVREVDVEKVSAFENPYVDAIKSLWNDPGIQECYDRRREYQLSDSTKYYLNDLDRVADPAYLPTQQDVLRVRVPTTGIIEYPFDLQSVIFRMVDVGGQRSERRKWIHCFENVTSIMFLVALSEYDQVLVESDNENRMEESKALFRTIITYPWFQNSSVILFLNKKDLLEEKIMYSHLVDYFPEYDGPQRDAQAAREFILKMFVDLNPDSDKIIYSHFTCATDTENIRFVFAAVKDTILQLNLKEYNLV
# Method: Apheresis‐purified human thrombocyte‐plasma concentrates were centrifuged (1,000 g at 4°C for 10 min), and the supernatant was decanted and centrifuged again (at 48,400 g, 4°C, for 60 min). The supernatant was kept and used as platelet‐poor plasma for control experiments; the formed pellet was resuspended in buffer 1 (50‐mM Tris–HCl, 5‐mM EDTA, and 150‐mM NaCl) and centrifuged at 48,400 g, 4°C for 60 min. The supernatant was discarded again and the pellet was resuspended in buffer 2 (5‐mM Tris–HCl and 5‐mM EDTA). The cell suspension was homogenized using an Ultra‐Turrax® (IKA Laborechnik, Staufen, Germany) for 1 min at a speed level of 4, subsequently transferred into cryovials, and stored at −80°C before use (the preparation is stable for several months). For radioligand binding assays, 50 μg of protein per vial was used, determined by the method of Bradford (Bio‐Rad Protein Assay).
# The experiments were performed in 50‐mM Tris–HCl buffer, pH 7.4. The final assay volume of 200 μl contained 5 μl of test compound in DMSO, 50 μl of [^3H]PSB‐15900 or [^3H]PSB‐16254, respectively, in buffer, 5 nM of final concentration, and 100 μl of human platelet membrane preparation (50 μg of protein) or intact human platelets (7.5 × 10^6 cells/vial). Non‐specific binding was determined in the presence of 5‐μM FR. The incubation was started by the addition of membrane preparation and was performed at 37°C for 1 hr with gentle shaking. It was terminated by rapid vacuum filtration through GF/C glass‐fibre filters using a Brandel 24‐well harvester. The filters were rinsed three times with approximately 3 ml each of ice‐cold Tris–HCl buffer, 50 mM, pH 7.4 containing 0.1% Tween 20 and 0.1% BSA, to separate bound from free radioligand. The filters were punched out and transferred to scintillation vials. Luma Safe® scintillation cocktail (2.5 ml) was added, and after 6 hr of incubation, the samples were counted for 1 min each, using a liquid scintillation counter (counting efficiency 53%). Experiments in the presence of GTP were additionally performed after preincubation of the membrane preparation with GTP for 1 hr. pIC50 and pKi values were calculated using equations for one‐site competition as implemented in GraphPad Prism 6.01 (GraphPad Inc., La Jolla, CA, USA).
# [2] = test system: Gq signalling via endogenously expressed M3 receptor; test: Calcium mobilization assay, carbachol-induced (M3 receptor) in 1321N1 astrocytoma cells; type: cell-based, human
# Method: (§1) The functional activity of YM, FR, and Ebselen as Gq protein inhibitors was determined by assessing their ability to antagonize ADP‐induced calcium mobilization in 1321N1 astrocytoma cells stably transfected with the human P2Y1 receptor, which is a Gq‐coupled receptor. In addition, the compounds' inhibitory effects on Carbachol‐induced calcium mobilization were studied in the same cell line, which endogenously express the Gq‐coupled muscarinic M3 ACh receptor. The assays were performed according to a previously described procedure (Rafehi et al., 2017) using a NOVOstar microplate reader (BMG Labtech, Offenburg, Germany).
# [3] = test system: Gq signalling (IP1 production) induced by ET‐1; test: IP1 assay in brown preadipocytes, ET-1; type: cell-based, mouse; conditions: Ebselen 50 μM pretreatment, ET‐1 10 nM
# Method: (§2) Intracellular concentrations of the second messenger IP1 in brown preadipocytes were quantified using the HTRF‐IP1 kit (Cisbio Bioassays) following the manufacturer's instructions. […] For ET‐1 experiments, non‐transduced preadipocytes were used. Cells were cultivated for 48 hr in GM (37°C, 5% CO2). For the assay, cells were trypsinized, and cell pellet was washed with PBS. Cell pellet was then resuspended in stimulation buffer containing 50‐mM LiCl and transferred to a 384‐well microtitre plate at a density of 100,000 cells per well in 7 μl of stimulation buffer. After 10 min of incubation, 3.5 μl of stimulation buffer containing inhibitors (50 μM of Ebselen, 1 μM of FR) were added for 1 hr followed by addition of 3.5 μl of stimulation buffer containing agonists (ET‐1, 10 nM; CNO, 10 μM) for 30 min; 3 μl of IP1‐d2 conjugate followed by 3 μl of europium cryptate‐labelled anti‐IP1 antibody dissolved in lysis buffer were added to the cells. After a further dark incubation of 1 hr at room temperature, time‐resolved fluorescence was measured at 620 and 665 nm with the EnSpire (Perkin Elmer) multimode plate reader.
# [4] = test system: primary murine brown adipocytes; test: Differentiation of primary murine brown adipocytes (Oil Red O, UCP-1, PPARγ); type: cell-based, mouse; conditions: Ebselen 50 μM, 9 days
# Method: Ten‐ to 12‐week‐old pregnant wild‐type C57Bl6/J mice were purchased from Charles River and housed in pathogen‐free environment under a 12‐hr light/12‐hr dark cycle having free access to standard rodent diet and water. Brown adipose tissue (BAT)‐derived mesenchymal stem cells were isolated from interscapular BAT of newborn wild‐type mice and further cultured as previously described (Klepac et al., 2016). Specifically, 170,000 cells per well were seeded in growth medium (GM; DMEM supplemented with 10% FBS and 1% penicillin–streptomycin mixture from Sigma‐Aldrich) in a six‐well plate (Day −4); 48 hr later (Day −2), GM was replaced by differentiation medium (DM), which is GM supplemented with 20‐nM insulin and 1‐nM triiodothyronine. At Day 0, cells were treated for 48 hr with BAT induction medium (DM supplemented with 0.5‐mM isobutylmethylxanthine and 1‐μM dexamethasone). For the next 5 days, cells were treated with DM that was replenished every second day. The indicated treatments were added from Day −2 to Day +7 for 9 days to the media, endothelin‐1 (ET‐1; Tocris, 10 nM), or Ebselen (50 μM). Ebselen was added 3 hr prior to ET‐1 treatment. On Day +7, differentiation of cells into mature adipocytes was analysed using Oil Red O staining of lipid droplets. Mature brown adipocytes were washed with PBS and then fixed in 4% paraformaldehyde. […]
# [5] = test system: Gq signalling (IP1 production) via Dq; test: IP1 assay in brown preadipocytes expressing Gq-coupled designer GPCR (Dq), CNO; type: cell-based, mouse; conditions: Ebselen 50 μM
# Method: as §2
# [6] = test system: Gq signalling via recombinantly expressed human P2Y1 receptor; test: Calcium mobilization assay, ADP-induced (P2Y1 receptor) in 1321N1 astrocytoma cells; type: cell-based
# Method: as §1
smiles,measurement,setting,value
N[C@@H](CS)C(=O)N1CCn2cc(-c3ccccc3)nc2[C@@H]1CC1CCCCC1 [BIM‐46174],inhibition or modulation of [^3H]PSB‐15900 binding by G protein inhibitors,[1],did not show any inhibition or modulation
N[C@@H](CSSC[C@H](N)C(=O)N1CCn2cc(-c3ccccc3)nc2[C@@H]1CC1CCCCC1)C(=O)N1CCn2cc(-c3ccccc3)nc2[C@@H]1CC1CCCCC1 [BIM‐46187],inhibition or modulation of [^3H]PSB‐15900 binding by G protein inhibitors,[1],did not show any inhibition or modulation
O=c1c2ccccc2[se]n1-c1ccccc1 [Ebselen],extent of block of carbachol‐induced calcium mobilization,[2],completely blocked
same,IC50,"[2]; Homo sapiens, versus Carbachol (EC80), M3 receptor, read-out: pIC50, inhibition of calcium mobilization (converted)",4.37 µM
same,Ki,"[1]; versus [^3H]PSB‐15900 (5 nM), human platelet membranes, 37°C, read-out: pKi (converted)",9.33 µM
same,effect on ET‐1‐induced IP1 production,[3],attenuated
same,effect on differentiation of brown adipocytes,[4],enhanced
same,effect on ET‐1‐induced inhibition of brown adipogenesis,[4]; ET‐1 10 nM,rescued
same,effect on CNO‐induced increase in IP1 levels,"[5]; CNO 10 μM, Gq‐DREADD expressing preadipocytes",significantly reduced
same,effect on basal IP1 levels,"[5]; absence of agonist (Ctrl), acute treatment",did not affect
same,IC50,"[6]; Homo sapiens, versus ADP (EC80), P2Y1 receptor, 1321N1 astrocytoma cells, read-out: pIC50, inhibition of calcium mobilization (converted)",2.34 µM
same,extent of block of ADP‐induced calcium mobilization,[6]; recombinant 1321N1 astrocytoma cells,completely blocked
Nc1nc2c(ncn2[C@@H]2O[C@H](COP(=O)(O)OP(=O)(O)OP(=O)(O)O)[C@@H](O)[C@H]2O)c(=O)[nH]1 [GTP],modulation of [^3H]PSB‐15900 binding by nucleotides,"[1]; 100 μM and 1 mM, human platelet membranes, 5 nM radioligand",not allosterically modulated
